# Test results from article PMC8067632, “Assessment and Development of the Antifungal Agent Caspofungin for Aerosolized Pulmonary Delivery” (Pharmaceutics, 2021).
# What was measured:
# [1] = Aerosol characterization (PARI LC Star nebulizer, QCM cascade impactor); assay type: physicochemical; conditions: 10 mg/mL caspofungin diacetate, determined once
# Protocol: Aerosol particle size distribution was determined once with a quartz crystal microbalance (QCM) cascade impactor (California Measurements Inc., Sierra Madre, CA, USA) equipped with 10 stages to collect size-segregated samples. The mass median aerodynamic diameter (MMAD) and geometric standard deviation (GSD) were calculated from the mass accumulated on each collection stage of the QCM. Each formulation was tested by aerosolizing it with a PARI LC Star nebulizer (PARI Respiratory Equipment, Inc., Midlothian, VA, USA) connected to compressed air at 28 psi. The air flow to the nebulizer was about 6.2 L/min. Approximately 7 mL of the test formulation solution was placed in the nebulizer, weighed and connected to the air supply for aerosolization. The nebulizer was operated for 12 min, and post weighed. The generated aerosol was delivered into a plenum with a narrow opening. A stream of test aerosol was sampled from the plenum for particle size determination. A Quartz Crystal Microbalance based cascade impactor (TSI Inc., Shoreview, MN, USA) was used for these determinations. Details of the formulation preparations are described in Supplementary Material S3.
# S3. Aerosol Characterization
# (PVP K30, 100 mg/mL) were prepared. […]
# osols for the purpose of comparing particle size.
# S3.1. Preparation of Caspofungin Diacetate Stock Solution: […]
# and recorded once during the exposure. […]
# [2] = Stability of lyophilized formulations by HPLC; assay type: physicochemical; conditions: caspofungin API lyophilized alone from water, 0 months; HPLC UV 220 nm
# Protocol: Lyophilization was accomplished using a VirTis benchtop manifold lyophilizer (SP Scientific, Stone Ridge, NY, USA) under vacuum of <50 mTorr. […] High-performance liquid chromatography (HPLC) analysis was carried out on a Waters 2695 separations module (Waters Corporation, Milford, MA, USA) equipped with an autosampler and a Waters 996 photodiode array detector. For impurity determinations a Waters Symmetry (Waters Corporation, Milford, MA, USA) C18 3.5 µm, 4.6 × 75 mm column was used. For weight-weight assay a Waters Symmetry C18 Column (Waters Corporation, Milford, MA, USA), 3.5 µm, 4.6 mm × 100 mm column was employed. […] Reconstituted stability analyses were analyzed using the above HPLC methods.
# The stability of the lyophilized formulations was studied under two sets of temperature conditions, 2–5 °C and 25 °C. […] At the specified time points the test articles were reconstituted with normal saline to yield a 10 mg/mL solution for HPLC assay. For comparison, we also lyophilized caspofungin API alone.
# HPLC analysis was carried out on a Waters 2695 separations module equipped with
# an autosampler and a Waters 996 photodiode array detector. The HPLC method is de-
# Column: Waters symmetry C18 3.5 μm, 4.6 x 75 mm
# Column Temperature: 30 °C
# Autosampler temperature: 4 °C
# Mobile phase: A: Add 1.0 mL of perchloric acid and 0.75 g of sodium chloride in 1000
# mL HPLC grade water; B: Acetonitrile. […]
# [3] = system: Candida tropicalis ATCC 200956; experiment: microbe, parasite or virus in culture; assay type: cell-based; conditions: CLSI broth microdilution, duplicate
# Protocol: (§1) Antifungal potency of the test article(s) was measured using the in vitro broth microdilution assay under test conditions described by the Clinical and Laboratory Standards Institute. Minimum Inhibitory Concentration (MIC) is defined as the lowest concentration of an agent that causes a specified reduction in visible growth of the microorganism. Minimum Effective Concentration (MEC) is defined as the lowest concentration of an agent that leads to the growth of small, rounded, compact hyphal forms, as compared to the hyphal growth typically seen in the growth control well. MIC values were determined for 9 Candida spp., and MEC values were determined for filamentous fungus species (Aspergillus fumigatus and Trichophyton rubrum). Details of the test article preparations and methodologies are described in Supplementary Material S1.
# (§2) Following incubation, the test plates were visually examined and wells were scored for growth or complete growth inhibition to define the MIC values. Microscopy examination was used to determine the MEC values. Each test substance was evaluated in duplicate and the results are the duplicate test values. Vehicle-control and an active reference agent were used as blank and positive controls, respectively. […]
# (§3) S1. In Vitro Testing, Test Article Preparations
# (§4) The 5 mg/mL stock solution was prepared as the following. The refrigerated vial was equilibrated to room temperature. Test vial was reconstituted aseptically with 10.5 mL 0.9% NaCl. The powder was dissolved completely, mixing until a clear solution was ob-tained. The final concentration was 5.0 mg/mL of caspofungin freebase. The reconstituted solution was stable for 1 hr at room temperature. The 5 mg/mL stock solution was then […]
# (§5) The refrigerated vial was equilibrated to room temperature. The powder was dis-solved completely, mixing until a clear solution was obtained. Test vial was reconstituted aseptically with 1.8 mL 0.9% NaCl. The white to off-white powder was dissolved com-pletely, mixing gently until a clear solution was obtained. The final concentration was 5.0 mg/mL of caspofungin freebase. The reconstituted solution was used within 1 hr at room temperature. The 5 mg/mL stock solution was then diluted with 0.9% NaCl to prepare the […]
# (§6) 1.3. Caspofungin Diacetate
# (§7) The 5 mg/mL API stock solution was prepared as the following. The refrigerated vial was equilibrated to room temperature. Test vial was filled aseptically with 1.8 mL 0.9%
# (§8) NaCl. The powder was dissolved completely, mixing until a clear solution was obtained.
# (§9) The final concentration was 5.0 mg/mL of caspofungin freebase. The reconstituted solu-tion was used within 1 hr at room temperature. The 5 mg/mL stock solution was then […]
# (§10) g compound, corresponding to 1.2 mg active compound with a correction factor of 2.40 was added 0.375 mL of water for injection to generate the 3.2 mg/mL working stock solution for testing. The 3.2 mg/mL working stock solution was 2-fold diluted seri-ally in 0.9% NaCl to prepare a total of eleven 50-fold stock solutions, concentrations rang-ing from 3.2 to 0.003 mg/mL. A 4 μL aliquot of each dilution was added to 196 μL of broth medium seeded with the organism suspension in wells of a 96 well plate (fungal cell count: 1 x 10^3 to 1 x 10^4 colony forming units per mL). The final volume was 200 μL in each […]
# [4] = system: Candida glabrata ATCC 36583; experiment: microbe, parasite or virus in culture; assay type: cell-based; conditions: CLSI broth microdilution, duplicate
# Protocol: as §1, §2, §3, §4, §5, §6, §7, §8, §9, §10
# [5] = system: Candida albicans ATCC90028 + 50%human serum; experiment: microbe, parasite or virus in culture; assay type: cell-based; conditions: CLSI broth microdilution, duplicate
# Protocol: as §1, §2, §3, §4, §5, §6, §7, §8, §9, §10
# [6] = system: Candida albicans Azole-R (20183.073); experiment: microbe, parasite or virus in culture; assay type: cell-based; conditions: CLSI broth microdilution, azole-resistant strain, duplicate
# Protocol: as §1, §2, §3, §4, §5, §6, §7, §8, §9, §10
# [7] = system: Candida albicans ATCC90028; experiment: microbe, parasite or virus in culture; assay type: cell-based; conditions: CLSI broth microdilution, visual, duplicate
# Protocol: as §1, §2, §3, §4, §5, §6, §7, §8, §9, §10
# [8] = system: Candida parapsilosis ATCC 22019; experiment: microbe, parasite or virus in culture; assay type: cell-based; conditions: CLSI broth microdilution, duplicate
# Protocol: as §1, §2, §3, §4, §5, §6, §7, §8, §9, §10
# [9] = system: Candida albicans Azole-R (20186.025); experiment: microbe, parasite or virus in culture; assay type: cell-based; conditions: CLSI broth microdilution, azole-resistant strain, duplicate
# Protocol: as §1, §2, §3, §4, §5, §6, §7, §8, §9, §10
# [10] = system: Candida albicans ATCC44858; experiment: microbe, parasite or virus in culture; assay type: cell-based; conditions: CLSI broth microdilution, visual, duplicate
# Protocol: as §1, §2, §3, §4, §5, §6, §7, §8, §9, §10
# [11] = system: Candida krusei ATCC 6258; experiment: microbe, parasite or virus in culture; assay type: cell-based; conditions: CLSI broth microdilution, duplicate
# Protocol: as §1, §2, §3, §4, §5, §6, §7, §8, §9, §10
smiles,measurement,setting,value
CC[C@H](C)C[C@H](C)CCCCCCCCC(=O)N[C@H]1C[C@@H](O)[C@@H](NCCN)NC(=O)[C@@H]2[C@@H](O)CCN2C(=O)[C@H]([C@H](O)CCN)NC(=O)[C@H]([C@H](O)[C@@H](O)c2ccc(O)cc2)NC(=O)[C@@H]2C[C@@H](O)CN2C(=O)[C@H]([C@@H](C)O)NC1=O [Caspofungin Diacetate],MMAD (Mass Median Aerodynamic Diameter),[1],1.15 microns
same,HPLC Purity %,[2],95.42%
same,MIC,[3],0.25 µg/mL
same,MIC,[4],0.25 µg/mL
same,MIC,[5],0.125 µg/mL
same,MIC,[6],0.25 µg/mL
same,MIC,[7],0.25 µg/mL
same,MIC,[8],1 µg/mL
same,MIC,[9],0.25 µg/mL
same,MIC,[10],0.25 µg/mL
same,MIC,[11],1 µg/mL
